Converted amounts (≈) assume the structure as drawn. “And” between values parts separate entries of the source, which are not always exact repeats. Identical values can stand only once. Like-named read-outs stand apart in the source and are kept apart here.
Experiments:
[1] = molecular target: T1, hTRPV3 (Homo sapiens (Human), UniProt Q8NET8); assay: hTRPV3 HAMA IC50 assay (Hamamatsu FDSS6000 calcium flux, TRex-293 cells); conditions: 5 min
Method: IC50s were calculated using CBIS from ChemInnovation (San Diego).

[2] = molecular target: T1, hTRPV3; assay: Whole-cell patch clamp, hTRPV3 Phase 1 / Phase 2 currents; type: cell-based
Outline: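 Whole-cell recordings on induced TRPV3 cells replated on coverslips, held at −40 mV with 400 ms ramps from −120 to +100 mV every 5 s; currents read at −80 and +80 mV. Ringer's external solution; current activated by heating to ≥28 °C or 20 μM 2-APB.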

[3] = Metabolic Stability assay, rat liver microsomes; type: in vitro ADME
Outline: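 Test article at 1 μM starting concentration incubated with human or rat liver microsomes at 37 °C, with the reaction started by NADPH regeneration components. Aliquots were quenched in cold acetonitrile/MeOH/H2O at 0, 7, 15, 30 and 60 min and analysed by HPLC/MS/MS.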

[4] = Metabolic Stability assay, human liver microsomes; type: in vitro ADME
Method: Metabolic Stability assay: The metabolic stability was determined by adding compound dissolved in DMSO to human or rat, liver microsomes. Briefly, assays were run with a starting concentration of 1 μM test article. The reaction was started by addition of NADPH regeneration components at 37° C. at which time an aliquot was immediately quenched in ice-cold acetonitrile/MeOH/H2O solution. Reaction mixture was incubated at 37° C. on a shaker, and additional aliquots were taken at 7, 15, 30 and 60 minutes. Following quench and centrifugation, samples were analyzed on HPLC/MS/MS.

[5] = Aqueous solubility assay in Normal Ringer Solution; conditions: Normal Ringer Solution, saline or isotonic, kinetic from dmso stock
Method: Following vortex and incubation for a sufficient time (e.g. 40 minutes at room temperature), solutions were filtered, quenched with acetonitrile, and analyzed by Liquid Chromotography. Solubility Limits were determined by comparison to a standard curve.

[6] = molecular target: human hERG channels (Homo sapiens (Human), UniProt Q12809); assay: hERG assay (patch clamp, CHO cells); type: cell-based
Method: hERG assay: Briefly, cells from a stable CHO cell line expressing human hERG channels were plated onto glass coverslips and used in patch clamp assays on the same day. After seal formation and break-in to whole-cell configuration, voltage steps were applied as follows: from the holding potential of −90 mV, a 2 second long step to +40 mV was applied, followed by a 1.5 second step to −50 mV. These steps were applied once every 5 seconds. The hERG current was measured at the peak of the outward tail current at −50 mV. The pipette solution was potassium aspartate based and the external solution was normal Ringer's.
All currents were recorded in whole-cell configuration using an Axopatch 200B controlled by pClamp 10 software (Molecular Devices). In each cell, when the current stabilized, the compound was perfused locally onto the cell. Two to three concentrations of the test compound were applied to each cell. At the end of compound testing, 10 μM verapamil was applied to completely block hERG currents and assess leak current.
Data were analyzed by computing the degree of current block after compound addition compared with the unblocked current amplitude. The unblocked current was predicted from the interpolation between the current amplitude prior to compound addition and after compound washout. The resulting percent block at each concentration was used to make a concentration-response plot and fitted to the Hill equation: percent block=minimum block+(maximum block-minimum block)/(1+10^(Hill slope*(log IC50−concentration))).

[7] = molecular target: rat (r) TRPV3 (Rattus norvegicus, UniProt E9PU00); assay: Whole-cell patch clamp, rTRPV3 Phase 1 / Phase 2 currents; type: cell-based
Excerpt: Whole-cell patch clamp experiments permit the detection of currents through the TRPV3 channel in the cell line described above. A glass electrode is brought into contact with a single cell and the membrane is then ruptured, permitting control of the voltage of the cell membrane and measurement of currents flowing across the membrane using the amplifier attached to the electrode. A perfusion system permits control of the extracellular solution, including the addition of blockers and activators of the current. The current can be activated by heating this solution to 28° C. or warmer or by addition of 20 μM 2-APB to the solution.
TRPV3 cells were induced 20-48 hours, removed from growth plates, and replated at low density (to attain good single-cell physical separation) on glass coverslips for measurement. In some cases, cells were grown in low density overnight on glass coverslips. Patch clamp recordings were made in the whole-cell mode with a holding potential of −40 mV. Every 5 seconds, a voltage ramp was applied from −120 to +100 mV, 400 ms in duration. Currents elicited were quantified at −80 mV and +80 mV. The internal solution consisted of 140 mM cesium aspartate, 10 mM EGTA, 2.27 mM MgCl2, 1.91 mM CaCl2) and 10 mM HEPES, pH to 7.2 with KOH; with 50 nM calculated free […]. External solution was Ringer's solution described above. Upon addition of 2-APB or upon heating of the extraceullar solution as described above, TRPV3 current was induced only in TRPV3-expressing cells and not in parental HEK293 TREx cells. […] Removal of the stimulus caused most of the current to go away, and inhibitor addition could still inhibit this current.
In Tables 3 and 4, Phase 1 refers to Phase 1 current for human (h) TRPV3 or rat (r) TRPV3, and Phase 2 refers to Phase 2 current for human (h) TRPV3 or rat (r) TRPV3. The hTRPV3 and rTRPV3 assays were performed as described herein. hERG refers to the inhibition the human ERG (hERG) channel. NaV1.5, refers to the pore forming aL-subunit of the voltage-dependent cardiac Na(+) channel and is an integral membrane protein involved in the initiation and conduction of action potentials. hTRPV3 HAMA IC50 refers to the IC50 of TRPV3 cells stably expressed in TRex-293 cells. Solubility Ringer refers to the compounds' solubility in Ringer's solution. LM T1/2 refers to liver microsome half-lives in either rat or human liver microsomes. FLIPR IC50 refers to the IC50 of the test compounds against recombinant hTRPV3 cells.

[8] = tested on: male C57BL/6J mice, AEW induced pruritus; assay: Acetone-ether-water (AEW) induced pruritus model in mice; conditions: HC-030031 4 mg/mouse SC 5 min before recording; P=0.0005 vs Vehicle2
[9] = Phase 1 current, inward, whole-cell patch clamp, read-out: hTRPV3 Patch P1 Inwd
[10] = Phase 1 current, human TRPV3, read-out: hTRPV3 (nM) Phase 1

Sequence of human hERG channels (Q12809 whole entry): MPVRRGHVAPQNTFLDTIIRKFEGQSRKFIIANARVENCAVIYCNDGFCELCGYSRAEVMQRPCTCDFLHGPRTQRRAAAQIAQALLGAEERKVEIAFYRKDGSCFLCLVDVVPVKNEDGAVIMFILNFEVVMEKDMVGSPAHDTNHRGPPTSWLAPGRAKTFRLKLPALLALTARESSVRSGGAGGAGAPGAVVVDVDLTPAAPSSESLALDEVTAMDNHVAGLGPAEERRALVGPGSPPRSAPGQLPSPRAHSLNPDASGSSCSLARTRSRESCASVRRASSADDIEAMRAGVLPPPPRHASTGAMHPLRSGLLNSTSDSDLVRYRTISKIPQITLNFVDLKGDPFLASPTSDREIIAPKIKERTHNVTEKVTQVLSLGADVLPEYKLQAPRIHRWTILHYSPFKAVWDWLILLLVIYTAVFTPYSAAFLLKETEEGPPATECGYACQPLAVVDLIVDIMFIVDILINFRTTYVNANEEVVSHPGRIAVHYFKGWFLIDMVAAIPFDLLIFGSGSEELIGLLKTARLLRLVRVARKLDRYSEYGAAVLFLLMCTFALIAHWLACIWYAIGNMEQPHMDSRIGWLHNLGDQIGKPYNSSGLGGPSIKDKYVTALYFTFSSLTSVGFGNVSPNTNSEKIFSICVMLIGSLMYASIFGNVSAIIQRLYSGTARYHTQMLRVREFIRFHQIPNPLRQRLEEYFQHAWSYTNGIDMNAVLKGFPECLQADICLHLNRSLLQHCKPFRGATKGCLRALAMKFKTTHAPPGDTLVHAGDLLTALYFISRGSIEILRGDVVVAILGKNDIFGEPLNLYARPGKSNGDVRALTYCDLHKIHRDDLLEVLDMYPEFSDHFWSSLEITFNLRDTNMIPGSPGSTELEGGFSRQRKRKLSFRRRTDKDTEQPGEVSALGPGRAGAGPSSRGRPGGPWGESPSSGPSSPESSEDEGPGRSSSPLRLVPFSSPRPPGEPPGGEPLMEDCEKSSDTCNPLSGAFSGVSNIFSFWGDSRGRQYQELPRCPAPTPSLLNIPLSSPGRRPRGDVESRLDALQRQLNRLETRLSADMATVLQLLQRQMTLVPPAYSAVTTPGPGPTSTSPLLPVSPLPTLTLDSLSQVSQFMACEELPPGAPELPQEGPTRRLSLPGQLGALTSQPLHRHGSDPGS
T1 sequence (Q8NET8 whole entry): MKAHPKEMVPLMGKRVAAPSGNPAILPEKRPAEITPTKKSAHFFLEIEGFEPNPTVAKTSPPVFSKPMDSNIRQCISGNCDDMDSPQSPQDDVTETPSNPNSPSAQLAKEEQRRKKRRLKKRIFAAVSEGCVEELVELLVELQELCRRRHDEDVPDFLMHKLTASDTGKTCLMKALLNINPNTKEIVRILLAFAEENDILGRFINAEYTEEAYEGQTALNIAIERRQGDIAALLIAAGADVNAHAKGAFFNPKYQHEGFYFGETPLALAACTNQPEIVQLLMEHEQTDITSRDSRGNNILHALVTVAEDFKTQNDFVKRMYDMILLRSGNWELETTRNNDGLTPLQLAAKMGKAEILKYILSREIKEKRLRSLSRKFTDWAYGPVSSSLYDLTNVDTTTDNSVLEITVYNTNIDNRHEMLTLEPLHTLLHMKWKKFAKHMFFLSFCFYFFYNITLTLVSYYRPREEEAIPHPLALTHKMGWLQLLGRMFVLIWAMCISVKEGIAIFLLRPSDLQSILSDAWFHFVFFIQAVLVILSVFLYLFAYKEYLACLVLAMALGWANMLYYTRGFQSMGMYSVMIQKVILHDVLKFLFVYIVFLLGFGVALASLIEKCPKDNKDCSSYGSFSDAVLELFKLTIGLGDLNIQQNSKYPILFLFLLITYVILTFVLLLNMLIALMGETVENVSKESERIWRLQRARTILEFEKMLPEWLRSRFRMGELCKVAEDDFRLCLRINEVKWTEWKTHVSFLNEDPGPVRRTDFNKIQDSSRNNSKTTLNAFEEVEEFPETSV
Sequence of rat (r) TRPV3 (E9PU00 1-791): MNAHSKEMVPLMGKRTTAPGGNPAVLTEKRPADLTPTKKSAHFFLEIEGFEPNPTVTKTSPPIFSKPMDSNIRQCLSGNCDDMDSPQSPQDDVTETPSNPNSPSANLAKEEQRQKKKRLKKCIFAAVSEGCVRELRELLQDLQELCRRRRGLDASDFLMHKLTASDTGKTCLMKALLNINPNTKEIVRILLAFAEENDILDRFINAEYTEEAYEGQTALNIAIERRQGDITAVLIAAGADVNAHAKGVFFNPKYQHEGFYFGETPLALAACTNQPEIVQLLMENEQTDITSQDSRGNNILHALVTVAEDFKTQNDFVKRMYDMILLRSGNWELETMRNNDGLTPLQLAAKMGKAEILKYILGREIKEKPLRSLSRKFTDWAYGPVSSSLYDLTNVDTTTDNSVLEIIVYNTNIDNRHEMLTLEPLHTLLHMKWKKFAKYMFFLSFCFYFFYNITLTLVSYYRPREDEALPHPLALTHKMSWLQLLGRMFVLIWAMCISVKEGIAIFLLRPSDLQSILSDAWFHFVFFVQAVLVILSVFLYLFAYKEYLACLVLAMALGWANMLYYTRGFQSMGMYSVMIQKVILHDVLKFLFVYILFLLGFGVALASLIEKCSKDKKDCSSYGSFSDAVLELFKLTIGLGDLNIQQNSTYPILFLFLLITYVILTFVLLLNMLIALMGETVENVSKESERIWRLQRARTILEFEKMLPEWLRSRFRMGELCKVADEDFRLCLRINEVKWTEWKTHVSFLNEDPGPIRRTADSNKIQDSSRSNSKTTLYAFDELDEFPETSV

| Structure (SMILES) | solubility at 40 min [5] [µM] | IC50 [2, 9] [nM] | IC50 ([6]; (PL), read-out: hERG (nM) (PL)) [M] | IC50 [2, 10] [nM] | half-life at 1 μM ([3]; read-out: LM T1/2 (min) rat) [min] | half-life at 1 μM ([4]; read-out: LM T1/2 (min) human) [min] | also measured |
| --- | --- | --- | --- | --- | --- | --- | --- |
| NC(=O)c1cc(C(F)(F)F)ccc1N1CC[C@H](Oc2ccc(C(F)(F)F)cn2)C1 [Compound 1-58, (S)-5-(trifluoromethyl)-2-(3-(5-(trifluoromethyl)pyridin-2-yloxy)pyrrolidin-1-yl)benzamide] | > 11.3 | – | – | – | – | – | hTRPV3 HAMA IC50 (nM) (5 min) [1]: no fit (5 min); IC50 ([2]; hTRPV3 (nM) (Phase 1)): 1250 nM and 1520 nM and > 3200 nM; IC50 ([2]; hTRPV3 Patch P2 Inwd (nM)): 100 to 1000 nM; IC50 ([2]; read-out: hTRPV3 (nM) (Phase 1)): 1040 nM; IC50 ([2]; read-out: hTRPV3 (nM) (Phase 2)): 241 nM; half-life at 1 μM ([3]; read-out: LM T1/2 (min) (rat)): > 60 min; half-life at 1 μM ([4]; read-out: LM T1/2 (min) (human)): > 60 min |
| OCc1cc([C@@H](O)c2ccccc2Cl)ccc1N1CC[C@H](Oc2ncccc2F)C1 [Compound 1-321, (2-chlorophenyl)(4-((S)-3-(3-fluoropyridin-2-yloxy)pyrrolidin-1-yl)-3-(hydroxymethyl)phenyl)methanol] | > 9.8 | 10 to 100 | – | – | – | – | IC50 ([6]; (PL), read-out: hERG): ~3.73e-06 M; IC50 ([7]; Phase 1 current, read-out: rTRPV3 (nM) (Phase 1)): 5.37 nM; IC50 ([7]; rTRPV3 (nM) (Phase 2), Phase 2 current): ~15.7 nM; IC50 ([2]; Phase 1 current, read-out: hTRPV3 (nM) (Phase 1)): 12.2 nM; hTRPV3 (nM) (Phase 2) ([2]; Phase 2 current): Incomplete Block; IC50 ([2]; Phase 2 current, read-out: hTRPV3 (nM) (Phase 2)): ~30 nM and ~44 nM; half-life at 1 μM ([3]; read-out: LM T1/2 (min) (rat)): 16.9 min |
| CC(C)c1ccccc1-c1ccc(C2CCN(C(=O)c3ccc(F)cn3)C2)c(CO)c1 (centres unmarked) [Compound 2-29, (5-fluoropyridin-2-yl)(3-(3-(hydroxymethyl)-2′-isopropylbiphenyl-4-yl)pyrrolidin-1-yl)methanone] | > 16.6 | < 10 | 7.48e-06 | 6.03 | 16.8 | 8.8 | IC50 ([6]; (M), read-out: hERG): 7.38e-06 M; IC50 ([7]; rTRPV3 (nM) Phase 1, Phase 1 current, rat TRPV3): 5.56 nM |
| CC(C)c1ccccc1-c1ccc(C2CCN(C(=O)c3cc(Cl)ccn3)C2)c(CO)c1 (centres unmarked) [Compound 2-49, (4-chloropyridin-2-yl)(3-(3-(hydroxymethyl)-2′-isopropylbiphenyl-4-yl)pyrrolidin-1-yl)methanone] | > 12.8 | 10 to 100 | 6.97e-06 | 25.7 | 20.6 | 12.2 | – |
| CCc1ccccc1-c1ccc(C2CCN(C(=O)c3ncccc3Cl)C2)c(CO)c1 (centres unmarked) [Compound 2-52, (3-chloropyridin-2-yl)(3-(2′-ethyl-3-(hydroxymethyl)biphenyl-4-yl)pyrrolidin-1-yl) methanone] | > 17.8 | 10 to 100 | – | 67.3 | 9.2 | 14.4 | – |
| CCc1ccccc1-c1ccc(C2CCN(C(=O)c3cccc(Cl)n3)C2)c(CO)c1 (centres unmarked) [Compound 2-53, (6-chloropyridin-2-yl)(3-(2′-ethyl-3-(hydroxymethyl)biphenyl-4-yl)pyrrolidin-1-yl) methanone] | ~7.7 (≈ 3.24 µg/mL) | < 10 | – | 8.39 | 12.3 | 24.9 | – |
| O=C(c1ccc(Cl)cn1)N1CCC(c2ccc(-c3ccccc3C3CC3)cc2CO)C1 (centres unmarked) [Compound 2-56] | ~5.1 (≈ 2.21 µg/mL) | < 10 | 7.29e-06 | 2.04 | – | 24.6 | – |
| O=C(c1ccc(C(F)(F)F)cn1)N1CCC(c2ccc(-c3ccccc3C3CC3)cc2CO)C1 (centres unmarked) [Compound 2-58, (3-(2′-cyclopropyl-3-(hydroxymethyl)biphenyl-4-yl)pyrrolidin-1-yl)(5-(trifluoromethyl)pyridin-2-yl)methanone] | ~5.2 (≈ 2.43 µg/mL) | 10 to 100 | 1.5e-05 | 27.3 | 47.9 | 54.6 | – |
| CCc1cc(C)ccc1-c1ccc(C2CCN(C(=O)c3ccc(F)cn3)C2)c(CO)c1 (centres unmarked) [Compound 2-62, (3-(2′-ethyl-3-(hydroxymethyl)-4′-methylbiphenyl-4-yl)pyrrolidin-1-yl)(5-fluoropyridin-2-yl)methanone] | > 12.1 | 10 to 100 | 1.77e-05 | 64.9 | 14 | 14.9 | – |
| O=C(c1ccc(F)cn1)N1CCC(c2ccc(-c3ccccc3C3CC3)cc2CO)C1 (centres unmarked) [Compound 2-72, (3-(2′-cyclopropyl-3-(hydroxymethyl)biphenyl-4-yl)pyrrolidin-1-yl)(5-fluoropyridin-2-yl)methanone] | ~25.5 (≈ 10.6 µg/mL) | – | 8.46e-06 | – | 31.3 | 17.5 | IC50 ([6]; (M), read-out: hERG): 9.24e-06 M |
| CC(C)c1ccc(NC(=O)Cn2cnc3c2c(=O)n(C)c(=O)n3C)cc1 [HC-030031] | – | – | – | – | – | – | scratching bouts [8]: significantly decreased; scratching time [8]: significantly decreased |

Reference: US12435061B2 (priority 2020, dated 2025)
